Measured values from ChEMBL document CHEMBL5584307, “Discovery of a Potent and Orally Bioavailable Xanthine Oxidase/Urate Transporter 1 Dual Inhibitor as a Potential Treatment for Hyperuricemia and Gout” (J Med Chem, 2024).

Experiments:
[1] = Toxicity in rat assessed as single-cellular necrosis of mucosal epithelium in colon at 120 mg/kg/day for 28 days by H and E staining based analysis; assay type: organism-based; conditions: in vivo, 672 h, time 28 day
[2] = Cmax in Tufted capuchin monkey at 30 mg/kg, po measured for 24 hrs by LC-MS/MS analysis; assay type: ADME, organism-based; conditions: sapajus apella, in vivo
[3] = Inhibition of SLC (unknown origin); parameters: species or system Homo sapiens
[4] = Toxicity in rat administered daily for 28 days; conditions: in vivo, time 28 day
[5] = AUC (last) in Cynomolgous monkey at 5 mg/kg, po measured upto 24 hrs by LC-MS/MS analysis; assay type: ADME, organism-based, Macaca fascicularis; conditions: cynomolgus monkey, in vivo
[6] = Stability in rat liver microsomes assessed as half life at 1 uM measured upto 60 mins in presence of NADPH by LC-MS/MS analysis; assay type: ADME, Microsome
Cytochrome P450 2D6 = Cytochrome P450 2D6 (Homo sapiens, UniProt P10635); assay: Inhibition of CYP2D6 in human liver microsomes in presence of NADPH by LC-MS/MS analysis; assay type: ADME, Microsome
Chain of Cytochrome P450 2D6 (P10635 whole entry): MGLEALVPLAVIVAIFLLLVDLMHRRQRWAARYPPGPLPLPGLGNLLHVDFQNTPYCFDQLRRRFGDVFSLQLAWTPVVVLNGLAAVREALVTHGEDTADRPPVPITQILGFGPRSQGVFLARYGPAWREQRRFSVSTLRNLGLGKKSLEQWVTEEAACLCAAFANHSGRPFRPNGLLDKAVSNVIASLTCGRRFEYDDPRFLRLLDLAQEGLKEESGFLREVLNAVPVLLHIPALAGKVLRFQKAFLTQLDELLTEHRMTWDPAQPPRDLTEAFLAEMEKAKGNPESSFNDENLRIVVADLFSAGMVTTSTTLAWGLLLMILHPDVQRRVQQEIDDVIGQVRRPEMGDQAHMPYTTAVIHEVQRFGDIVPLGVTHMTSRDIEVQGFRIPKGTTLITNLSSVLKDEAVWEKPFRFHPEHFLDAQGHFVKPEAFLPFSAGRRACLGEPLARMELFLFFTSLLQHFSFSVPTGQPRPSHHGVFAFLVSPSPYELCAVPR

[7] = Half life in Cynomolgous monkey at 5 mg/kg, po measured upto 24 hrs by LC-MS/MS analysis; assay type: ADME, organism-based, Macaca fascicularis; conditions: cynomolgus monkey, in vivo
[8] = AUC (last) in Tufted capuchin monkey at 100 mg/kg, po measured for 24 hrs by LC-MS/MS analysis; assay type: ADME, organism-based; conditions: sapajus apella, in vivo
[9] = Tmax in Tufted capuchin monkey at 100 mg/kg, po measured for 24 hrs by LC-MS/MS analysis; assay type: ADME, organism-based; conditions: sapajus apella, in vivo
[10] = Toxicity in rat assessed as increase in liver weight at 60 to 120 mg/kg/day for 28 days; assay type: organism-based; conditions: in vivo, 672 h, dose 60-120 mg/kg/day, time 28 day
[11] = AUC (last) in Beagle dog at 5 mg/kg, po measured upto 24 hrs by LC-MS/MS analysis; assay type: ADME, organism-based, Canis lupus familiaris; conditions: in vivo
[12] = AUC (last) in overnight-fasted Sprague-Dawley rat at 5 mg/kg, po measured upto 24 hrs by LC-MS/MS analysis; assay type: ADME, organism-based; conditions: in vivo
[13] = Toxicity in rat assessed as increase in ALP level at 120 mg/kg/day for 28 days; assay type: organism-based; conditions: in vivo, 672 h, time 28 day
[14] = AUC (last) in Tufted capuchin monkey at 10 mg/kg, po measured for 24 hrs by LC-MS/MS analysis; assay type: ADME, organism-based; conditions: sapajus apella, in vivo
[15] = Stability in dog liver microsomes assessed as half life at 1 uM measured upto 60 mins in presence of NADPH by LC-MS/MS analysis; assay type: ADME, Canis lupus familiaris, Microsome
[16] = Toxicity in rat assessed as diffuse hepatocytes hypertrophy at 120 mg/kg/day for 28 days by H and E staining based analysis; assay type: organism-based; conditions: in vivo, 672 h, time 28 day
[17] = Stability in human liver microsomes assessed as half life at 1 uM measured upto 60 mins in presence of NADPH by LC-MS/MS analysis; assay type: ADME, Microsome
[18] = Half life in Beagle dog at 5 mg/kg, po measured upto 24 hrs by LC-MS/MS analysis; assay type: ADME, organism-based, Canis lupus familiaris; conditions: in vivo
[19] = Volume of distribution at steady state in overnight-fasted Sprague-Dawley rat at 5 mg/kg, po or 1 mg/kg, iv measured upto 24 hrs by LC-MS/MS analysis; assay type: ADME, organism-based; conditions: in vivo
[20] = Cmax in Tufted capuchin monkey at 100 mg/kg, po measured for 24 hrs by LC-MS/MS analysis; assay type: ADME, organism-based; conditions: sapajus apella, in vivo
[21] = Toxicity in cynomolgous monkey assessed as decrease in body weight at 90 to 200 mg/kg/day for 28 days consecutively; assay type: organism-based, Macaca fascicularis; conditions: cynomolgus monkey, in vivo, 672 h; dose 90-200 mg/kg/day, time 28 day
[22] = Cmax in Beagle dog at 5 mg/kg, po measured upto 24 hrs by LC-MS/MS analysis; assay type: ADME, organism-based, Canis lupus familiaris; conditions: in vivo
[23] = AUC (last) in Cynomolgous monkey at 1 mg/kg, iv measured upto 24 hrs by LC-MS/MS analysis; assay type: ADME, organism-based, Macaca fascicularis; conditions: cynomolgus monkey, in vivo
[24] = Cmax in Tufted capuchin monkey at 10 mg/kg, po measured for 24 hrs by LC-MS/MS analysis; assay type: ADME, organism-based; conditions: sapajus apella, in vivo
[25] = Toxicity in cynomolgous monkey assessed as increase in vomiting at 90 to 200 mg/kg/day for 28 days consecutively; assay type: organism-based, Macaca fascicularis; conditions: cynomolgus monkey, in vivo, 672 h; dose 90-200 mg/kg/day, time 28 day
Sapajus apella = assay: Urate lowering effect in Tufted capuchin monkey assessed as serum xanthine level at 30 mg/kg/day, po qd for 3 days consecutively; assay type: functional; conditions: time 3 day
[26] = Half life in Tufted capuchin monkey at 100 mg/kg, po measured for 24 hrs by LC-MS/MS analysis; assay type: ADME, organism-based; conditions: sapajus apella, in vivo
[27] = Toxicity in rat assessed as decrease in food consumption at 60 to 120 mg/kg/day for 28 days; assay type: organism-based; conditions: in vivo, 672 h, dose 60-120 mg/kg/day, time 28 day
[28] = target: Voltage-gated inwardly rectifying potassium channel KCNH2 (Homo sapiens, UniProt Q12809); assay: Inhibition of hERG transfected in HEK293 cells by patch clamp assay; assay type: toxicity, cell-based
Chain of Voltage-gated inwardly rectifying potassium channel KCNH2 (Q12809 whole entry): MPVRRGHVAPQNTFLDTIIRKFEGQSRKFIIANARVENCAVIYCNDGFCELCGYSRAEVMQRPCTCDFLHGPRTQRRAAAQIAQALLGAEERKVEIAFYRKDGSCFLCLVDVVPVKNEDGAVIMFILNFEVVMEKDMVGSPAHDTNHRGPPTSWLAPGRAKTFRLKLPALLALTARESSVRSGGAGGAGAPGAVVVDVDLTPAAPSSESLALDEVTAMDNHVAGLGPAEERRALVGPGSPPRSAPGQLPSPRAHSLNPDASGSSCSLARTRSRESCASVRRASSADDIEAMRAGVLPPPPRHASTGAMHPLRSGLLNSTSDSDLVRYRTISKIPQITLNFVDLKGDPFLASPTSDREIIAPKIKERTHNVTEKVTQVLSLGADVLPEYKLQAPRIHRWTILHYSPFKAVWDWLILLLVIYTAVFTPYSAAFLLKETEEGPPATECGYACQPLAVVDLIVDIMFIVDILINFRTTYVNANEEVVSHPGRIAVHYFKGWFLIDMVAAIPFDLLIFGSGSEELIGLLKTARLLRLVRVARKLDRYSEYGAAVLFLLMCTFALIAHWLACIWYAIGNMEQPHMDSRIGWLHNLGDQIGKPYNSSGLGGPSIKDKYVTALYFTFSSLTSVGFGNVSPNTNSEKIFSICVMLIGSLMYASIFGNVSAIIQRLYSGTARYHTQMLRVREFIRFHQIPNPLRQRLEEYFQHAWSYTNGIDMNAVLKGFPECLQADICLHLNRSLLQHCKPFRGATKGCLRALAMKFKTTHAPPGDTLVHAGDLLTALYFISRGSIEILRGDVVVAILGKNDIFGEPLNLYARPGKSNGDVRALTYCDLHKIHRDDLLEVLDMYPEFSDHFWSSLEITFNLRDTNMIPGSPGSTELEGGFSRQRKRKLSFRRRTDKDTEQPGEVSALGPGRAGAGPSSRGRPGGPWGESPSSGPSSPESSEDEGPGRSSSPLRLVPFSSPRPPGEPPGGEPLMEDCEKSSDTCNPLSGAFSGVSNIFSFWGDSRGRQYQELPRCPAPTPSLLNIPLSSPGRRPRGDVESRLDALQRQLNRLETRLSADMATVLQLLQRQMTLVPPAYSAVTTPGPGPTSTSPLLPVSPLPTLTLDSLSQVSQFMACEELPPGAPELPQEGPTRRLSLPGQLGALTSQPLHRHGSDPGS

[29] = Ratio of drug concentration in Sprague-Dawley rat kidney to plasma at 3 mg/kg, po measured for 24 hrs by LC-MS/MS analysis; assay type: ADME, organism-based; conditions: kidney and plasma
[30] = Toxicity in cynomolgous monkey assessed as flatus in intestines at 200 mg/kg/day for 28 days consecutively; assay type: organism-based, Macaca fascicularis; conditions: cynomolgus monkey, in vivo, 672 h, time 28 day
[31] = Toxicity in rat assessed as decrease in body weight at 120 mg/kg/day for 28 days; assay type: organism-based; conditions: in vivo, 672 h, time 28 day
[32] = Toxicity in cynomolgous monkey assessed as distended abdomen at 200 mg/kg/day for 28 days consecutively; assay type: organism-based, Macaca fascicularis; conditions: cynomolgus monkey, in vivo, 672 h, time 28 day

N#Cc1cc(-c2ccc(C(=O)O)c(O)c2)c2oc(F)cc2c1
Activity [1]: Toxic
Cmax [2]: 16700 ng/mL
IC50 [3]: > 0.628 µM
NOAEL at 672 h [4]: 60 mg/kg/day
AUC(0-t) at 24 h [5]: 34200 ng·h/mL
half-life at 1 µM [6]: 3.38 h
IC50 (Cytochrome P450 2D6): > 50 µM
half-life [7]: 7.9 h
AUC(0-t) at 24 h [8]: 302000 ng·h/mL
Tmax [9]: 0.9 h
Activity [10]: Toxic
AUC(0-t) at 24 h [11]: 11500 ng·h/mL
AUC(0-t) at 24 h [12]: 81700 ng·h/mL
Activity [13]: Toxic
AUC(0-t) at 24 h [14]: 4340 ng·h/mL
half-life at 1 µM [15]: 21.1 h
Activity [16]: Toxic
half-life at 1 µM [17]: 3.75 h
half-life [18]: 2.82 h
Vdss [19]: 0.31 L/kg
Cmax [20]: 145000 ng/mL
Activity [21]: Toxic
Cmax [22]: 2530 ng/mL
AUC(0-t) at 24 h [23]: 16100 ng·h/mL
Cmax [24]: 2470 ng/mL
Activity [25]: Toxic
Activity (Sapajus apella): 6.19 µg·h/mL
half-life [26]: 3.21 h
Activity [27]: Toxic
IC50 [28]: > 52 µM
Kp at 24 h [29]: 0.56
Activity [30]: Toxic
Activity [31]: Toxic
Activity [32]: Toxic
